Data on one compound can be found in US20250188075A1, “SUBSTITUTED HETEROCYCLIC CSNK1 INHIBITORS” (The Broad Institute, Inc., priority 2022, published 2025).

Data set [1] is described as follows: Solubility assay (thermodynamic solubility). The data set is classed as physicochemical. The following applies: aqueous buffer, 24 h. The method, then:
Solubility of solid compound in aqueous buffer was determined by an equilibrium shake flask method. A saturated solution of drug in solvent (˜2 mg/ml solvent) was prepared and the solution was mixed for 24 h to ensure that equilibrium has been reached. The solution was centrifuged to remove the insoluble fraction and the concentration of the compound in solution was determined by HPLC-UV using a standard calibration curve (Kerns, E. H. et al., Solubility Methods in: Drug-like Properties: Concepts, Structure Design and Methods, p 276-286. Burlington, MA: Academic Press 2008).

Data set [2] has as its target human Ether-a-go-go-Related Gene (hERG) potassium channel (Homo sapiens (Human), UniProt Q12809). Nature of the data set: hERG inhibition assay, automated voltage clamp. The data set is classed as cell-based. Conditions: HEK293 cells stably expressing hERG alpha subunit. The method, then: Following harvest, cells were transferred to the cell reservoir of a 384 channel automated patch clamp device and stored there at 20° C. until usage.
Upon start of the automated voltage clamp procedure, hERG cells were transferred to a 384 well patch clamp chip (pipette resistance of ˜[…] (2) prefilled with external solution (containing in mM: 143 NaCl, 4 KCl, 2 CaCl2), 1 MgCl2, 5 glucose, 10 HEPES; pH 7.4 (NaOH)). Underpressure was applied underneath the glass bottom of the patch clamp chip to position the hERG cells on the recording sites in the glass bottom of the chip. Following successful cell catch, underpressure was stopped and a seal enhancing solution (containing in mM: 78 NaCl, 60 NMDG, 4 KCl, 10 CaCl2), 1 MgCl2, 5 glucose, 10 HEPES; pH 7.4 (HCl)) was added to the hERG cells to facilitate the formation of stable seals between the membranes of the hERG cells and the glass next to the recording sites. Then, hERG cells were washed several times with wash solution (containing in mM: 87 NaCl, 60 NMDG, 4 KCl, 2 CaCl2), 1 MgCl2, 5 glucose, 10 HEPES; pH 7.4 (HCl)) to remove excess seal enhancing solution. In the meantime, the membrane parts of the hERG cells covering the recording sites were exposed to internal solution (containing in mM: 10 NaCl, 123 KF, 10 EGTA, 10 HEPES; pH 7.2 (KOH)) supplemented with 5-20 μM Escin, and the perforated patch configuration was established. Next, the holding potential was stepwise adjusted to −80 mV, capacitance was compensated, and a series of defined voltage commands was initiated to trigger the hERG current response from the hERG cells (−80 mV for 200 ms, +20 mV for 1000 ms, −40 mV for 500 ms; repeated at a frequency of 0.1 Hz). To determine whether the test item inhibits hERG, different solutions were sequentially applied to the hERG cells: First, a negative control (i.e. wash solution supplemented with 0.3% DMSO and 0.01% HSA) was applied for at least 3 min to investigate the basic electrophysiological properties of the hERG cells as well as define their standard current response. Next, a solution containing the test item at a final concentration of (0.1, 1, or 10) μM was applied for 10 min to measure eventual inhibitory effects of the test item on the hERG current (—the test item solution was produced from a 10 mM DMSO stock by using an automated pipetting device and sequential dilution). Finally, a positive control (i.e. wash solution supplemented with 0.3% DMSO, 0.01% HSA, and 10 μM quinidine) was added to the cells for ˜3 min to block the hERG current and, thereby, define the maximum inhibition. For data analysis, experimental results were processed using the automated patch clamp device-specific software as well as a custom-made software, and TIBCO Spotfire. For each successful recording, hERG tail current amplitudes were averaged from three consecutive current responses at the end of the negative control phase, test item phase, and positive control phase, respectively. Resulting mean hERG tail current amplitudes were normalized to the mean hERG tail current amplitude at the end of the negative control phase with nominal 0% inhibition as well as the hERG tail current amplitude at the end of the positive control phase with nominal 100% inhibition. Then, the effect of the test item was calculated as a percentage inhibition value at the test item concentration applied. Finally, percentage inhibition values from all successful recordings at a particular test item concentration were averaged and combined to construct a standard sigmoidal dose response curve, determine the half maximal inhibitory concentration (IC50) of the test item as well as extrapolate its IC20.
Background: Block of hERG is tested as a sign of cardiac risk.

Chain of human Ether-a-go-go-Related Gene (hERG) potassium channel (Q12809 whole entry): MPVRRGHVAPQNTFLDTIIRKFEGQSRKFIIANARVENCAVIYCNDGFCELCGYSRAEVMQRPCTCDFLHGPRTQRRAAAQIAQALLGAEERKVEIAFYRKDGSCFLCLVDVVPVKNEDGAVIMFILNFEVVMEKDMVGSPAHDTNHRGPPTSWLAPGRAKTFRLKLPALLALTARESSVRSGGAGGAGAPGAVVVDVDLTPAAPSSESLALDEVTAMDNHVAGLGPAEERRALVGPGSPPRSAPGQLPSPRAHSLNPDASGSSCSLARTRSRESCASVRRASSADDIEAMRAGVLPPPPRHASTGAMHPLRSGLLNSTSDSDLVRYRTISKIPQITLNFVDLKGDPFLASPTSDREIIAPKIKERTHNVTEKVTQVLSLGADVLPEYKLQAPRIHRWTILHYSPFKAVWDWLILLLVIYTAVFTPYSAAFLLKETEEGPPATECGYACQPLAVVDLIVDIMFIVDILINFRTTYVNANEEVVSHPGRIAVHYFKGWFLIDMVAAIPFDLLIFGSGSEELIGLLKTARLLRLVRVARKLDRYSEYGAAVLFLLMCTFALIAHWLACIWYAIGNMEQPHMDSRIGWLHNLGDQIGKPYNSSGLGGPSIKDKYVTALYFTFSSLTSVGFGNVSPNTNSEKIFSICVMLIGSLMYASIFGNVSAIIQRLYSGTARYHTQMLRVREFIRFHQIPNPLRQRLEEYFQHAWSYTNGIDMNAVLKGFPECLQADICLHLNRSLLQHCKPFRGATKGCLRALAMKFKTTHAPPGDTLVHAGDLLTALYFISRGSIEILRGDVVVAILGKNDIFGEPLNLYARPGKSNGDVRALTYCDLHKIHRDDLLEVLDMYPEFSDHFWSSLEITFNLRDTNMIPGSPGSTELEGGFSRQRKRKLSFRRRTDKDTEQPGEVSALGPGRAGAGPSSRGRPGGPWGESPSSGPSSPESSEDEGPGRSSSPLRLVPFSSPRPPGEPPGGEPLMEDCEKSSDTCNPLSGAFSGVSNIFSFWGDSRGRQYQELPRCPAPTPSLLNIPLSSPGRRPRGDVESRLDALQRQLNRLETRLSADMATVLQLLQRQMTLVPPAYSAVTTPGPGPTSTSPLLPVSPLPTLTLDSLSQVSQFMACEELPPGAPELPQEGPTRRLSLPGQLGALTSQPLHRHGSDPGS

As usually defined, the IC50 is the point on the concentration scale where inhibition reaches its midpoint. `O=C(Cc1ccc(F)cc1)Nc1cc(-c2[nH]c3ccc(F)nc3c2-c2ccccn2)ccn1` [Example C4, reference compound]: in data set [1], the “Thermodynamic Solubility [mg/l] (mean)” value is 2.35 mg/L. Moreover, in data set [2], 1.16 µM corresponded to half-maximal inhibition (IC50).
